Assay results: patent US20120010115A1, “PRESERVATIVE SYSTEM AND COMPOSITION BASED ON GLYCINATE AND DIHYDROXYPROPYL QUATERNARY AMMONIUM SALT COMBINATION” (CONOPCO, INC., D/B/A UNILEVER, priority 2010, published 2012)

Test system: Pseudomonas aeruginosa ATCC 9027
Test: Challenge Test for the Evaluation of Preservative Capacity of Liquid Detergent and Personal Products
Format: cell-based
Conditions: aqueous formula, each active 5%, pH 7.6, inoculum 1.06E+07 (Log 7)
Description: Experiments were conducted to evaluate antimicrobial activity against Pseudomonas aeruginosa of aqueous formulas containing 2,3-dihydroxypropyl trimethyl ammonium chloride (Glyceryl Quat), sodium cocoyl glycinate and combinations of these two materials. Samples were prepared at room temperature by mixing together sodium cocoyl glycinate and/or Glyceryl Quat and water. The pH was adjusted by addition of aqueous hydrochloric acid to reach a 7.6 value. Amounts of each of the active components was 5%. Test Method: Challenge Test for the Evaluation of Preservative Capacity of Liquid Detergent and Personal Products Test Microorganism: Pseudomonas aeruginosa ATCC 9027 obtained from American Type Culture Collection, Manassas, Va. 20108. Procedure: 20 grams of product were inoculated with 0.2 ml of the microorganism at a level of 1.06E+07 or Log 7. A single inoculation was performed. At 2 day, 7 day, 14 day and 21 day time points after inoculation a 1 gram sample was aseptically removed into a neutralizing fluid (TAT Broth) and plated using Letheen Agar. The plates were incubated at 30° C. for 7 days. At the end of the incubation time the plates were removed and examined for microbial growth. Calculation of Log Reduction: The microorganisms recovered were converted into Log10 and compared to initial inoculum count which then determined the Log Reduction. Logarithmic functions are the inverse of exponential functions. Log reduction was determined by the initial inoculum count minus the counts at each sampling time point.

Row | Compound | Log Reduction Value (2 day after inoculation) | Log Reduction Value (7 day after inoculation) | Log Reduction Value (14 day after inoculation) | Log Reduction Value (21 day after inoculation)
1 | C[N+](C)(C)CC(O)CO.[Cl-] (centres unmarked) [Glyceryl Quat, 2,3-dihydroxypropyl trimethyl ammonium chloride] | 2.1 | 1.5 | 2.8 | 3.4
2 | sodium cocoyl glycinate | 1.1 | 1.1 | 0.8 | 0.2
